Earlier results as cited in PubChem BioAssay AID1259409 (Chemical Carcinogenesis Research Information System (CCRIS), 2018).

Tested on: rodent chemically induced tumor inhibition, incidence and multiplicity
Experiment: CCRIS tumor inhibitor studies
Settings: Dose [Inhibitor]: 0, Route [Inhibitor]: ORAL, Promoter: NONE USED

## CN1C(C(=O)Nc2ccccn2)=C(O)c2ccccc2S1(=O)=O
Carcinogen: 2-ACETYLAMINOFLUORENE, 53-96-3, 130 PPM IN DIET FOR 18 WK BEGINNING 1 WK PRIOR TO CARCINOGEN TREATMENT (STUDY DURATION: 36 WK), Species: RAT, Strain/Sex: ACI/N/MALE, Target Tissue: Type of Lesion: LIVER: TUMOR, Dose [Carcinogen]: 200 PPM IN DIET FOR 16 WK
  tumour outcome (control, treated, inhibition, significance): 10/10 (100%), 1/10 (10%), 90%, p=0.00006
Carcinogen: 4-(METHYLNITROSAMINO)-1-(3-PYRIDYL-1-BUTANONE, 64091-91-4, 25 MG/KG IN DIET FOR 25 WK BEGINNING 2 WK PRIOR TO CARCINOGEN TREATMENT (STUDY DURATION: 25 WK), Species: MOUSE, Strain/Sex: STRAIN-A/FEMALE, Target Tissue: Type of Lesion: FORESTOMACH: TUMOR, Dose [Carcinogen]: 9.1 MG IN DRINKING WATER FOR 7 WK
  tumour outcome (control, treated, inhibition, significance): 7/25 (28%), 2/24 (8%), 71%, not significant
Carcinogen: 7,12-DIMETHYLBENZ[A]ANTHRACENE, 57-97-6, 0.01% IN HIGH-FAT (20% SOYBEAN OIL) DIET FOR 20 WK BEGINNING 1 WK POST CARCINOGEN DOSE (STUDY DURATION: 21 WK), Species: RAT, Strain/Sex: SPRAGUE-DAWLEY/FEMALE, Target Tissue: Type of Lesion: MAMMARY GLAND: ADENOCARCINOMA, Dose [Carcinogen]: 5 MG ONCE
  tumour outcome (control, treated, inhibition, significance): 17/20 (85%), 19/21 (90%), -6%, not significant
Carcinogen: 7,12-DIMETHYLBENZ[A]ANTHRACENE, 57-97-6, 0.01% IN LOW-FAT (0.5% SOYBEAN OIL) DIET FOR 20 WK BEGINNING 1 WK POST CARCINOGEN DOSE (STUDY DURATION: 21 WK), Species: RAT, Strain/Sex: SPRAGUE-DAWLEY/FEMALE, Target Tissue: Type of Lesion: MAMMARY GLAND: ADENOCARCINOMA, Dose [Carcinogen]: 5 MG ONCE
  tumour outcome (control, treated, inhibition, significance): 10/18 (56%), 9/20 (45%), 20%, not significant
Carcinogen: AZOXYMETHANE, 25843-45-2, 25 PPM IN DIET BEGINNING 1 WK POST CARCINOGEN DOSE FOR DURATION OF STUDY (STUDY DURATION: 56 WK), Species: RAT, Strain/Sex: F344/MALE, Target Tissue: Type of Lesion: COLON: ADENOCARCINOMA, Dose [Carcinogen]: 29.6 MG/KG IN NORMAL SALINE ONCE
  tumour outcome (control, treated, inhibition, significance): 17/30 (57%), 10/30 (33%), 41%, not calculated
Carcinogen: AZOXYMETHANE, 25843-45-2, 25 PPM IN DIET BEGINNING 1 WK POST CARCINOGEN DOSE FOR DURATION OF STUDY (STUDY DURATION: 56 WK), Species: RAT, Strain/Sex: F344/MALE, Target Tissue: Type of Lesion: COLON: ADENOMA, Dose [Carcinogen]: 29.6 MG/KG IN NORMAL SALINE ONCE
  tumour outcome (control, treated, inhibition, significance): 11/30 (37%), 16/30 (53%), -43%, not calculated
Carcinogen: AZOXYMETHANE, 25843-45-2, 25 PPM IN DIET BEGINNING 1 WK POST CARCINOGEN DOSE FOR DURATION OF STUDY (STUDY DURATION: 56 WK), Species: RAT, Strain/Sex: F344/MALE, Target Tissue: Type of Lesion: SMALL INTESTINE: ADENOCARCINOMA, Dose [Carcinogen]: 29.6 MG/KG IN NORMAL SALINE ONCE
  tumour outcome (control, treated, inhibition, significance): 10/30 (33%), 7/30 (23%), 30%, not calculated
Carcinogen: AZOXYMETHANE, 25843-45-2, 25 PPM IN DIET BEGINNING 1 WK POST CARCINOGEN DOSE FOR DURATION OF STUDY (STUDY DURATION: 56 WK), Species: RAT, Strain/Sex: F344/MALE, Target Tissue: Type of Lesion: SMALL INTESTINE: ADENOMA, Dose [Carcinogen]: 29.6 MG/KG IN NORMAL SALINE ONCE
  tumour outcome (control, treated, inhibition, significance): 1/30 (3%), 0/30 (0%), 100%, not significant
Carcinogen: AZOXYMETHANE, 25843-45-2, 75 PPM IN DIET BEGINNING 1 WK POST CARCINOGEN DOSE FOR DURATION OF STUDY (STUDY DURATION: 56 WK), Species: RAT, Strain/Sex: F344/MALE, Target Tissue: Type of Lesion: COLON: ADENOCARCINOMA, Dose [Carcinogen]: 29.6 MG/KG IN NORMAL SALINE ONCE
  tumour outcome (control, treated, inhibition, significance): 17/30 (57%), 6/30 (20%), 65%, p<0.05
Carcinogen: AZOXYMETHANE, 25843-45-2, 75 PPM IN DIET BEGINNING 1 WK POST CARCINOGEN DOSE FOR DURATION OF STUDY (STUDY DURATION: 56 WK), Species: RAT, Strain/Sex: F344/MALE, Target Tissue: Type of Lesion: COLON: ADENOMA, Dose [Carcinogen]: 29.6 MG/KG IN NORMAL SALINE ONCE
  tumour outcome (control, treated, inhibition, significance): 11/30 (37%), 14/30 (47%), -27%, not calculated
Carcinogen: AZOXYMETHANE, 25843-45-2, 75 PPM IN DIET BEGINNING 1 WK POST CARCINOGEN DOSE FOR DURATION OF STUDY (STUDY DURATION: 56 WK), Species: RAT, Strain/Sex: F344/MALE, Target Tissue: Type of Lesion: SMALL INTESTINE: ADENOCARCINOMA, Dose [Carcinogen]: 29.6 MG/KG IN NORMAL SALINE ONCE
  tumour outcome (control, treated, inhibition, significance): 10/30 (33%), 9/30 (30%), 10%, not calculated
Carcinogen: AZOXYMETHANE, 25843-45-2, 75 PPM IN DIET BEGINNING 1 WK POST CARCINOGEN DOSE FOR DURATION OF STUDY (STUDY DURATION: 56 WK), Species: RAT, Strain/Sex: F344/MALE, Target Tissue: Type of Lesion: SMALL INTESTINE: ADENOMA, Dose [Carcinogen]: 29.6 MG/KG IN NORMAL SALINE ONCE
  tumour outcome (control, treated, inhibition, significance): 1/30 (3%), 2/30 (7%), -133%, not calculated
Carcinogen: AZOXYMETHANE, 25843-45-2, 75 PPM IN THE DIET FOR 28 WK BEGINNING 2 WK PRIOR TO CARCINOGEN TREATMENT (STUDY DURATION: 30 WK), Species: RAT, Strain/Sex: F344/MALE, Target Tissue: Type of Lesion: COLON: TUMOR, Dose [Carcinogen]: 15 MG/KG BW 1/WK FOR 2 WK
  tumour outcome (control, treated, inhibition, significance): 20/43 (47%), 19/56 (34%), 28%, p<0.05
Carcinogen: AZOXYMETHANE, 25843-45-2, 150 PPM IN DIET BEGINNING 1 WK POST CARCINOGEN DOSE FOR DURATION OF STUDY (STUDY DURATION: 56 WK), Species: RAT, Strain/Sex: F344/MALE, Target Tissue: Type of Lesion: COLON: ADENOCARCINOMA, Dose [Carcinogen]: 29.6 MG/KG IN NORMAL SALINE ONCE
  tumour outcome (control, treated, inhibition, significance): 17/30 (57%), 7/30 (23%), 59%, p<0.05
